Experimental data taken from patent US11707062B2, “Formulation of stearyl alcohol” (PRO FARM GROUP, INC., priority 2017, dated 2023).

What was measured:
almond = test: Almond orchard field trial, yield
soybean leaves = test: Leaf temperature and gas exchange of attached soybean leaves in a field; format: in vivo; conditions: 1% v/v DI water solution on upper leaf surface; SE±0.31; P-value<0.02, paired t-test
From the text: FIG. 9 denotes a comparison of the temperature depression caused by stearyl alcohol application to leaves. Points represent temperatures measured at 9 time intervals on four pairs of leaves. FIG. 10 denotes a comparison of photosynthetic capacity of treated leaves, control leaves and leaves prior to stearyl alcohol application. Photosynthetic capacity variation is interpreted as a treatment having higher/lower photosynthesis values than the control for the same stomatal conductance To test the hypothesis that stearyl alcohol reduces internal leaf temperatures while not adversely affecting photosynthesis, stearyl alcohol was applied to eight attached soybean leaves selected from plants growing in a field. The leaves were spaced in blocks so that two leaves could be compared to each other as control/treatment pairs. The leaves were placed in fishing line, wood and metal holders that restrained the leaves in an exposed and horizontal orientation (to prevent leaf orientation changes affecting the leaf energy balance and temperature). Leaf temperature was measured with an IR thermometer three times before and six times after application of a 1% v/v DI water solution of stearyl alcohol to the upper leaf surface, applied using a household spray bottle. Full coverage of the leaf surface was achieved and excess water shaken off. Leaves were dry within half an hour. […]

[1] = system: wine (Merlot) and table (Princess) grape varieties; test: Solar radiation damage in Chilean vineyards; format: in vivo; conditions: 3, 6 or 9 mL/L in 100 L of water; at harvest
From the text: FIG. 13 denotes number of sun-damaged bunches of Merlot grape. Bars represent standard error for total number of damaged bunches. Letters are the same for each category of damage and represent significant differences according to a Tukey test for separation of means with α=0.05.
FIG. 14 denotes number of sun-damaged bunches of Princesa table grape. Bars represent standard error for number of damaged bunches. Letters represent significant differences in number of damaged bunches according to a Tukey test for separation of means with α=0.05.
To evaluate for protection from excess or harmful solar radiation, stearyl alcohol was applied by Duarte and Associates in established Chilean vineyards planted with wine (Merlot) and table (Princess) grape varieties. Plants were treated in 2014 with 3, 6 or 9 mL/L in 100 L of water when berries reached 11 mm in diameter and at two week intervals over the subsequent six weeks. Five contiguous vines were sprayed per treatment; treatments were replicated 3 times and arranged in a random complete block design. At harvest, bunches were counted per plant, yields assessed, sugar content measured and solar radiation damage rated.

tomato plants = test: Controlled lab bioassay of transpiration under moderate heat stress; format: in vivo
Protocol: FIG. 11 denotes mean transpiration rates of tomato plants treated with stearyl alcohol at 72 hours after application. Bars represent standard errors. A controlled lab bioassay was run to evaluate the ability of stearyl alcohol to decrease transpiration of tomato plants under moderate heat stress. stearyl alcohol was applied at a 6 mL/L concentration in water to five tomato plants at the 6-8 leaf stage growing in 8.9 cm square pots, using a research track sprayer. Sombrero, a commercially available calcium carbonate plant sunscreen product, was applied as a positive control and deionized water as a negative control. The application rate was equivalent to 150 liters of diluted product per acre. After sealing pots with plastic bags to prevent water loss through evaporation from the soil surface and measuring total pot and plant weight, the plants were placed in randomized complete blocks in a growth chamber set to 26° C. with 50% relative humidity, x 3000 μW/cm2 illumination for 14 hours per day. Sealed pots and plants were again weighed at 24, 48 and 72 hours after application. Differences in weight were attributed to water loss through transpiration. Plant mass was then plotted against time, and the slope of the linear regression was taken to be the rate of water loss in Average surface area of the leaves (cm2) was calculated using a digital leaf area scanner. Mean transpiration rate was then calculated as: Rate=Water Loss Rate (μg/sec)/Total Leaf Area (cm2).

[2] = Percent light transmittance by spectrophotometer; format: physicochemical; conditions: depending on the concentration of material applied
Protocol: FIG. 8 denotes percent light transmission (% T) of wavelengths between 200 and 750 nm. UV-B radiation occurs at 280-315 nm (dashed green lines), while photosynthetically active radiation occurs between 400-700 nm (solid green lines). The rows of symbols correspond to 12 mL/L concentrations of formulated stearyl alcohol (triangles) and two alternate formulations (squares, diamonds). Water (circles) results in 100% light transmittance. To test the hypothesis that stearyl alcohol reduces transmission of light radiation, particularly within the UV-B spectrum, percent (%) transmittance were measured using a spectrophotometer. stearyl alcohol was diluted to 1/100th of the field application rate (6 mL/L active ingredient) for both visible and non-visible UV light spectra. Visible light spectral analysis was conducted using a 96 well plate while UV transparent cuvettes and 96 well plates were utilized to analyze the percent light transmittance at the UV spectrum. For all spectrophotometer light transmittance screenings, both a water reference and plate blank were used to calibrate the ratio of light energy transmitted through the formulation samples to the energy transmitted through the reference blank. Treatments were replicated three times.

reductions of light in the photosynthetically active radiation spectrum ([2]; 400-700 nm): 10-15%
reductions of transmitted UV-B radiation ([2]; UV-B 280-315 nm): 20-50%
Structure (SMILES): CCCCCCCCCCCCCCCCCCO [stearyl alcohol]
crop safety in pre-harvest field assessments (almond; almond orchard, six assessment dates): confirmed the crop safety
almond yields (almond; stearyl alcohol 6 ml/L three applications, Surround 50 lbs per acre, untreated 2.8 tons/A): 3.2 tons/A
apparent depression in leaf temperatures after application (soybean leaves): 1.5 degree C.
damaged bunches, table grape (Princess) [1]: fewer damaged bunches
damaged bunches, wine grape (Merlot) [1]: fewer damaged bunches
mean transpiration rate (tomato plants; 6 mL/L stearyl alcohol, 26° C., 50% relative humidity, up to 72 hours after application, untreated control 6.68): 5.33 μg/cm2/sec
average reductions in leaf temperature (tomato plants; tomato plants, growth chamber 26° C.): 1.50 (±0.35) ° C.
reductions in transpiration (tomato plants; vs untreated control): about 20%
